# According to article PMC6222451, “Novel Potent Hypoglycemic Compounds from Euonymus laxiflorus Champ. and Their Effect on Reducing Plasma Glucose in an ICR Mouse Model” (Molecules : A Journal of Synthetic Chemistry and Natural …, 2018):
# Read-outs that look alike come from different tables or passages of the source.
# Legend:
# [1] = target: T1, Saccharomyces cerevisiae (yeast) α-glucosidase (Saccharomyces cerevisiae, UniProt P53341); assay: α-Glucosidase inhibitory activity determination (pNPG substrate); format: biochemical; details: for inhibition at 7.81 µg/mL: read-out: Maximum Inhibition (%), recorded at 7.81 μg/mL
# T1 construct: purchased Sigma Chemical Co., St. Louis City, MO, USA
# Protocol: The α-glucosidase inhibitory activity was closely detected following the method described in detail by Nguyen et al. (2018). The mixture of 50 μL α-glucosidase, 50 μL sample solutions, 100 μL buffer was pre-incubated at 37 °C for 20 min; the reaction then started when 50 μL of p-nitrophenyl glucopyranoside (10 mmol/L) was added to the mixture. After incubation at the same temperature for 30 min, the reaction was stopped by adding 100 μL Na2CO3 solution (1 mol/L) to the reaction mixture; the absorbance of this final mixture was then measured at 410 nm (A). The control group also underwent the same described method with the use of 50 μL buffer instead of 50 μL sample solutions; the absorbance was recorded at 410 nm (B). The aGI activity (%) was calculated using the following equation: aGI (%) = (A − B)/ A × 100.
# The inhibition was also expressed as IC50 value determined as per the previous study. The enzyme and the samples were prepared in 0.1 mol/L potassium phosphate buffer (pH 7). […]
# [2] = test system: ICR mice; assay: Starch tolerance test: effect on reducing plasma glucose in ICR mice; format: in vivo, mouse; details: oral
# Description: Animals: seven week-old male ICR (Institute of Cancer Research) mice were purchased from The National Laboratory Animal Center (No. 128, Sec. 2, Academia Rd., Nangang Dist., Taipei City 11529, Taiwan) and tested in accordance with the approval and guidelines of the Institutional Animal Care and Use Committee of the National Research Institute of Chinese Medicine, Ministry of Health and Welfare (IACUC No. 104-706-1, 29 December 2014). […] Distilled water was used to prepare the condensed tannins and acarbose solutions.
# Assay: The effect of condensed tannin-ELCTB-3.1.1 on the reduction of plasma glucose in mice was performed according to the experimental animal protocol described by Nguyen et al. (2017) with the use of starch solution (3 g/kg bw) instead of sucrose solution administered to ICR mice.
# [3] = read-out: Maximum Inhibition (%), recorded at 250 μg/mL
# [4] = read-out: α-glucosidase inhibition, aGI (%), primary test of 26 isolated compounds at 250 µg/mL (Figure 2)
# [5] = IC50, isolated compounds (Table 3)
# [6] = isolated compounds (Table 3), read-out: IC50 (converted)
# T1 sequence (P53341 whole entry): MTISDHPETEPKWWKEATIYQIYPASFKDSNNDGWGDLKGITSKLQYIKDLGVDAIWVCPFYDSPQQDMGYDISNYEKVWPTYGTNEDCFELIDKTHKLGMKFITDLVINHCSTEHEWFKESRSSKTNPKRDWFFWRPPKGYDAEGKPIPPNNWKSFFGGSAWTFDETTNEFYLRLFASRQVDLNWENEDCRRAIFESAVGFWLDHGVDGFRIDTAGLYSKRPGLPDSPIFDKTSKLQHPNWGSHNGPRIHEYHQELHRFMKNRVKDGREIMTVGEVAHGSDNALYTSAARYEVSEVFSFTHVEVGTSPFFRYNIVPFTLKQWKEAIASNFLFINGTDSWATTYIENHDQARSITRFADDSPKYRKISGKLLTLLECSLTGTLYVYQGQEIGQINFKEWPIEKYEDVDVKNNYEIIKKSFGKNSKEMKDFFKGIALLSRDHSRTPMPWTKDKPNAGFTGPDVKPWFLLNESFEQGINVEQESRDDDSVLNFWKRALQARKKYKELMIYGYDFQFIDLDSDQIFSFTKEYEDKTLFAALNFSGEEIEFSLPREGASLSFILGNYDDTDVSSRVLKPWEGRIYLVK
compound,measurement,setting,value
"C[C@H]1O[C@H](O[C@H]2[C@H](O)[C@@H](O)[C@@H](O[C@H]3[C@H](O)[C@@H](O)C(O)O[C@@H]3CO)O[C@@H]2CO)[C@H](O)[C@@H](O)[C@@H]1N[C@H]1C=C(CO)[C@@H](O)[C@H](O)[C@H]1O (stereo partly shown) [Acarbose, reference compound]",inhibition at 2500 µg/mL,"[1]; read-out: Maximum Inhibition (%), acarbose, recorded at 2500 μg/mL (Table 3)",65 ± 2.7%
same,inhibition at 2500 µg/mL,"[1]; read-out: α-Glucosidase Inhibitory Activity Inhibition (%), yeast α-glucosidase, acarbose tested at 2500 μg/mL (Table 2)",64 ± 2.4%
same,mice with symptoms of diarrhea,[2]; acarbose 25 mg/kg bw,20%
same,mice with symptoms of diarrhea,[2]; acarbose 50 mg/kg bw,50%
"CC1=CC(=O)OCC1O[C@@H]1O[C@H](CO)[C@@H](O)[C@H](O)[C@H]1O (stereo partly drawn) [Compound 1, Walterolactone A/B β-D-pyranoglucoside]",IC50,[1],3.12 µM
same,inhibition at 7.81 µg/mL,[1],100 ± 5.8%
"COc1cc(O[C@@H]2O[C@H](CO)[C@@H](O)[C@H](O)[C@H]2O)cc(OC)c1O [Compound 9, 1-β-D-glucopyranosyloxy-3,5-dimethoxy-4-hydroxybenzene]",inhibition at 250 µg/mL,[1]; [3],≤ 38%
same,inhibition at 250 µg/mL,[1]; [4],38 to 60%
"Oc1cc(O)c2c(c1)O[C@@H](c1cc(O)c(O)c(O)c1)[C@H](O)C2 [Compound 10, (−)-Gallocatechin]",IC50,[1]; [5],38.9 µM
same,inhibition at 250 µg/mL,[1]; [3],93 ± 2.9%
"O=C(c1ccc(O)cc1)C(O)CO[C@@H]1O[C@H](CO)[C@@H](O)[C@H](O)[C@H]1O (stereo partly drawn) [Compound 11, Schweinfurthinol 9-O-β-D-pyranoglucoside]",IC50,[1],91.8 µM
same,inhibition at 250 µg/mL,[1]; [3],87 ± 4%
same,inhibition at 250 µg/mL,[1]; [4],90 to 100%
"CC(C)=CC(=O)O[C@@H]1[C@H](O)[C@H](O)[C@@H](O)[C@H](O)[C@H]1O [Compound 12, 1-O-(3-methyl)-butenoyl-myo-inositol]",IC50,[1]; [6],103 µM
same,inhibition at 250 µg/mL,[1]; [3],96 ± 6.9%
"COc1cc(O)cc(OC)c1O[C@@H]1O[C@H](CO)[C@@H](O)[C@H](O)[C@H]1O [Compound 14, Leonuriside]",IC50,[1]; [6],2.79 µM
same,inhibition at 7.81 µg/mL,[1],99 ± 6.4%
"Oc1cc(O)c2c(c1)O[C@H](c1ccc(O)c(O)c1)[C@@H](O)C2 [Compound 19, (+)-Catechin]",IC50,[1]; [6],0.389 µM
same,inhibition at 0.977 µg/mL,"[1]; read-out: Maximum Inhibition (%), recorded at 0.977 μg/mL",100 ± 5.9%
"COC(=O)c1cc(O)c(O)c(O)c1 [Compound 20, Methyl galloate]",IC50,[1]; [5],597 µM
same,inhibition at 250 µg/mL,[1]; [3],58 ± 1.2%
"Oc1cc(O)c2c(c1)O[C@@H](c1ccc(O)c(O)c1)[C@H](O)C2 [Compound 23, (−)-Catechin]",inhibition at 250 µg/mL,[1]; [3],≤ 38%
